Converted amounts (≈) assume the structure as drawn. “And” between values parts separate entries of the source, which are not always exact repeats. Equal values may be shown once. Read-outs that look alike come from different tables or passages of the source.
Columns and labels:
[1] = system: S. aureus ATCC 29213; assay: In vitro antibacterial susceptibility testing, broth dilution micro-method (MIC); conditions: Staphylococcus aureus, ATCC29213, 24 h, read-out: MIC SA
[2] = system: methicillin-resistant S. aureus clinical isolate MRSA 63718; assay: as above; conditions: for MIC: Staphylococcus aureus, MRSA, read-out: MIC MRSA 63718, clinical isolate MRSA 63718
[3] = system: methicillin-resistant S. aureus clinical isolate SA 630; assay: as above; conditions: 24 h; for MIC: Staphylococcus aureus, MRSA, read-out: MIC MRSA SA 630, clinical isolate MRSA SA 630, 37 °C, MH broth
[4] = system: methicillin-resistant S. aureus clinical isolate SA 3202; assay: as above; conditions: 24 h; for MIC: Staphylococcus aureus, MRSA, read-out: MIC MRSA 3202, clinical isolate MRSA 3202, 37 °C, MH broth
[5] = system: M. tuberculosis H37Ra ATCC 25177; assay: In vitro antimycobacterial evaluation, alamarBlue (MIC); type: cell-based; conditions: Mycobacterium tuberculosis, 168 h, read-out: MIC MT
Method: The evaluation of the in vitro antimycobacterial activity of the compounds was performed against M. tuberculosis H37Ra ATCC 25177 [25] and clinical isolate of M. avium subsp. paratuberculosis CIT03 [26], see Table 1. The activity of compounds was expressed as the minimum inhibitory concentration (MIC) that is defined for mycobacteria as a 90% or greater (IC90) reduction of growth in comparison with the control. The MIC/IC90 value is routinely and widely used in bacterial assays, being a standard detection limit according to the Clinical and Laboratory Standards Institute.
Mycobacterium tuberculosis H37Ra ATCC 25177 and well characterised clinical isolate M. avium subsp. paratuberculosis CIT03 were grown in Middlebrook broth (MB), supplemented with Oleic-Albumin-Dextrose-Catalase supplement (Becton Dickinson, Oxford, UK) and mycobactin J (2 μg/mL). Identification of these isolates was performed using biochemical and molecular protocols. At log phase growth, a culture sample (10 mL) was centrifuged at 15,000 rpm/20 min using a bench top centrifuge (Model CR 4-12, Jouan Inc., Winchester, VA, USA). Following removal of the supernatant, the pellet was washed in fresh Middlebrook 7H9GC broth and re-suspended in fresh supplemented MB (10 mL). The turbidity was adjusted to match McFarland standard No. 1 (3 × 10^8 cfu) with MB broth. A further 1:20 dilution of the culture was then performed in MB broth. The antimicrobial susceptibility of all three mycobacterial species was investigated in a 96-well plate format. In these experiments, sterile deionised water (300 µL) was added to all outer-perimeter wells of the plates to minimize evaporation of the medium in the test wells during incubation. Sample wells were composed of 100 µL of test compound dilution and 100 µL of the bacterial stock being tested against. Dilutions of each compound were prepared in duplicate. For all synthesized compounds, final concentrations ranged from 1000 μg/mL to 8 μg/mL. All compounds were prepared in DMSO and subsequent dilutions were made in supplemented MB. The plates were sealed with parafilm and incubated at 37 °C, for 7 days in the case of M. tuberculosis and 11 days in the case of M. avium subsp. paratuberculosis. Following incubation, a 10% addition of alamarBlue (AbD Serotec, Kidlington, UK) was mixed into each well and readings at 570 nm and 600 nm were taken, initially for background subtraction and subsequently after 24 h re-incubation. The background subtraction is necessary for strongly coloured compounds, where the colour may interfere with the interpretation of any colour change. For non-interfering compounds, a blue colour in the well was interpreted as an absence of growth and a pink colour was scored as growth. […] The MIC value is routinely and widely used in bacterial assays and is a standard detection limit according to the Clinical and Laboratory Standards Institute (CLSI,). Rifampicin (Sigma-Aldrich) was used as the standard as it is clinically used antimycobacterial drugs.

[6] = system: clinical isolate of M. avium subsp. paratuberculosis CIT03; assay: as above; type: cell-based; conditions: Mycobacterium avium, 264 h, read-out: MIC MAP
[7] = system: human monocytic leukemia THP-1 cells; conditions: 24 h
[8] = system: photosynthetic electron transport in spinach chloroplasts; assay: Inhibition of photosynthetic electron transport (PET), DCPIP photoreduction (Hill reaction); type: biochemical, spinach (Spinacia oleracea L.)
Method: The PET inhibiting activity of the compounds was expressed by IC50 values. […] The aqueous solubility of the para-substituted compounds was limited; therefore IC50 values could not be determined due to precipitation of compounds during experiment. […]
Chloroplasts were prepared from spinach (Spinacia oleracea L.) according to Masarovicova and Kralova. The inhibition of photosynthetic electron transport (PET) in spinach chloroplasts was determined spectrophotometrically (Genesys 6, Thermo Scientific Corporation), using an artificial electron acceptor 2,6-dichlorophenol-indophenol (DCPIP) according to Kralova et al., and the rate of photosynthetic electron transport was monitored as a photoreduction of DCPIP. The measurements were carried out in phosphate buffer (20.0 mM, pH 7.2) containing sucrose (0.4 M), MgCl2 (5.0 mM) and NaCl (15.0 mM). The chlorophyll content was 30 mg/L in these experiments and the samples were irradiated (~100 W/m^2 with 10 cm distance) with a halogen lamp (250 W) using a 4 cm water filter to prevent warming of the samples (suspension temperature 22 °C). The studied compounds were dissolved in DMSO due to their limited aqueous solubility. The applied DMSO concentration (up to 4%) had negligible effect on the photochemical activity in isolated spinach chloroplasts (observed differences in DCPIP photoreduction due DMSO addition were within experimental error). The inhibitory efficiency of the studied compounds was expressed by IC50 values, i.e., by molar concentration of the compounds causing 50% decrease in DCPIP photoreduction relative to the untreated control. […] All reagents used in this study were of analytical grade and were purchased from Sigma.

[9] = M. avium subsp. paratuberculosis CIT03, 11 days, 37 °C, alamarBlue, MIC/IC90
[10] = M. tuberculosis H37Ra, 7 days, 37 °C, alamarBlue, MIC/IC90

Structure (SMILES)	MIC [1]	MIC ([2]; 24 h, 24 h, 37 °C, MH broth)	MIC [3]	MIC [4]	MIC [5]	MIC [6, 9]	LD50 [7]	MIC [5, 10]	IC50 [8]	MIC [6]	activity fold higher than that of ampicillin ([2]; antibacterial activity against MRSA strains versus ampicillin)	MIC MRSA 63718 ([2]; clinical isolate MRSA 63718, 24 h, 37 °C, MH broth)	MIC MRSA SA 630 ([3]; clinical isolate MRSA SA 630, 37 °C, MH broth)	MIC MRSA 3202 ([4]; clinical isolate MRSA 3202, 37 °C, MH broth)
CC1(C)S[C@@H]2[C@H](NC(=O)[C@H](N)c3ccccc3)C(=O)N2[C@H]1C(=O)O [APC, ampicillin, reference compound]	5.7 µM (≈ 1.99 µg/mL)	> 46 µM	> 46 µM	> 46 µM										
O=C(Nc1ccccc1)c1cc2ccccc2cc1O [Compound 2, 3-Hydroxy-N-phenylnaphthalene-2-carboxamide]	972 µM (≈ 256 µg/mL)	972 µM (≈ 256 µg/mL)	972 µM (≈ 256 µg/mL)	972 µM (≈ 256 µg/mL)	950 µM (≈ 250 µg/mL)	950 µM (≈ 250 µg/mL)	>30 µM							
COc1ccccc1NC(=O)c1cc2ccccc2cc1O [Compound 3a, 3-hydroxy-N-(2-methoxyphenyl)naphthalene-2-carboxamide]	55 µM (≈ 16.1 µg/mL)	55 µM (≈ 16.1 µg/mL)	55 µM (≈ 16.1 µg/mL)	55 µM (≈ 16.1 µg/mL)		205 µM (≈ 60.1 µg/mL)		51 µM (≈ 15 µg/mL)	59.5 µM					
COc1cccc(NC(=O)c2cc3ccccc3cc2O)c1 [Compound 3b, 3-hydroxy-N-(3-methoxyphenyl)naphthalene-2-carboxamide]	873 µM (≈ 256 µg/mL)	873 µM (≈ 256 µg/mL)	873 µM (≈ 256 µg/mL)	873 µM (≈ 256 µg/mL)		426 µM (≈ 125 µg/mL)	>30 µM	51 µM (≈ 15 µg/mL)	53.4 µM					
COc1ccc(NC(=O)c2cc3ccccc3cc2O)cc1 [Compound 3c, 3-hydroxy-N-(4-methoxyphenyl)naphthalene-2-carboxamide]	873 µM (≈ 256 µg/mL)	873 µM (≈ 256 µg/mL)	873 µM (≈ 256 µg/mL)	873 µM (≈ 256 µg/mL)			>30 µM	852 µM (≈ 250 µg/mL)		852 µM (≈ 250 µg/mL)				
CCOc1ccc(NC(=O)c2cc3ccccc3cc2O)cc1 [Compound 4c, N-(4-Ethoxyphenyl)-3-hydroxynaphthalene-2-carboxamide]	832 µM (≈ 256 µg/mL)	832 µM (≈ 256 µg/mL)	832 µM (≈ 256 µg/mL)	832 µM (≈ 256 µg/mL)			>30 µM	813 µM (≈ 250 µg/mL)		813 µM (≈ 250 µg/mL)				
CCCOc1ccccc1NC(=O)c1cc2ccccc2cc1O [Compound 5a, 3-Hydroxy-N-(2-propoxyphenyl)naphthalene-2-carboxamide]	12.4 µM (≈ 3.99 µg/mL)	12 µM (≈ 3.86 µg/mL)	12 µM (≈ 3.86 µg/mL)	12 µM (≈ 3.86 µg/mL)				778 µM (≈ 250 µg/mL)	128 µM	778 µM (≈ 250 µg/mL)	~4 fold	12.4 µM (≈ 3.99 µg/mL)	12.4 µM (≈ 3.99 µg/mL)	12.4 µM (≈ 3.99 µg/mL)
CCCOc1cccc(NC(=O)c2cc3ccccc3cc2O)c1 [Compound 5b, 3-Hydroxy-N-(3-propoxyphenyl)naphthalene-2-carboxamide]	796 µM (≈ 256 µg/mL)	796 µM (≈ 256 µg/mL)	796 µM (≈ 256 µg/mL)	796 µM (≈ 256 µg/mL)				778 µM (≈ 250 µg/mL)	4.8 µM	778 µM (≈ 250 µg/mL)				
CCCOc1ccc(NC(=O)c2cc3ccccc3cc2O)cc1 [Compound 5c, 3-Hydroxy-N-(4-propoxyphenyl)naphthalene-2-carboxamide]	796 µM (≈ 256 µg/mL)	796 µM (≈ 256 µg/mL)	796 µM (≈ 256 µg/mL)	796 µM (≈ 256 µg/mL)			>30 µM	778 µM (≈ 250 µg/mL)		778 µM (≈ 250 µg/mL)				
CCCCOc1ccc(NC(=O)c2cc3ccccc3cc2O)cc1 [Compound 6c, N-(4-Butoxyphenyl)-3-hydroxynaphthalene-2-carboxamide]	763 µM (≈ 256 µg/mL)	763 µM (≈ 256 µg/mL)	763 µM (≈ 256 µg/mL)	763 µM (≈ 256 µg/mL)			>30 µM	745 µM (≈ 250 µg/mL)		745 µM (≈ 250 µg/mL)				
CC(C)Oc1ccc(NC(=O)c2cc3ccccc3cc2O)cc1 [Compound 7c, 3-Hydroxy-N-[4-(prop-2-yloxy)phenyl]naphthalene-2-carboxamide]	796 µM (≈ 256 µg/mL)	796 µM (≈ 256 µg/mL)	796 µM (≈ 256 µg/mL)	796 µM (≈ 256 µg/mL)		778 µM (≈ 250 µg/mL)	>30 µM	389 µM (≈ 125 µg/mL)						
CCC(C)Oc1ccc(NC(=O)c2cc3ccccc3cc2O)cc1 (centres unmarked) [Compound 8c, N-[4-(But-2-yloxy)phenyl]-3-hydroxynaphthalene-2-carboxamide]	763 µM (≈ 256 µg/mL)	763 µM (≈ 256 µg/mL)	763 µM (≈ 256 µg/mL)	763 µM (≈ 256 µg/mL)		745 µM (≈ 250 µg/mL)	>30 µM	89 µM (≈ 29.9 µg/mL)						
CN(C)C(=O)Nc1ccc(Cl)c(Cl)c1 [DCMU, 3-(3,4-dichlorophenyl)-1,1-dimethylurea, reference compound]									~1.9 µM and 1.9 µM					
CO[C@H]1/C=C/O[C@@]2(C)Oc3c(C)c(O)c4c(O)c(c(/C=N/N5CCN(C)CC5)c(O)c4c3C2=O)NC(=O)/C(C)=C\C=C\[C@H](C)[C@H](O)[C@@H](C)[C@@H](O)[C@@H](C)[C@H](OC(C)=O)[C@@H]1C [RIF, rifampicin, reference compound]						109 µM (≈ 89.7 µg/mL)		10 µM (≈ 8.23 µg/mL)						

Reference: PMC6272341, “Synthesis and Biological Evaluation of N-Alkoxyphenyl-3-hydroxynaphthalene-2-carboxanilides” (Molecules, 2015)
